Assay results taken from PMC8175350, “Drug repurposing screens identify chemical entities for the development of COVID-19 interventions” (Nature Communications, 2021).
Where “and” joins values, the source holds several entries; their conditions need not be identical. Equal values may be shown once. Read-outs that look alike come from different tables or passages of the source.

Legend:
SARS-CoV-2 [1] = test: microbe, parasite or virus in culture; type: cell-based
[2] = Uninfected HeLa-ACE2 24 h live/dead cytotoxicity counter screen; type: cell-based, human; conditions: human, uninfected HeLa-ACE2 cells, detail block; read-out: HeLa-ACE2 uninfected cytotoxicity CC50 GeoMean
HeLa-ACE2 cells [3] = test: as above; type: cell-based, human; conditions: HeLa-ACE2; concentration log[M] -8.59517; replicates
SARS-CoV-2 [4] = test: microbe, parasite or virus in culture; type: cell-based; conditions: for %infected: Calu-3, replicates n=1, n=2
SARS-CoV-2 [5] = test: microbe, parasite or virus in culture; type: cell-based; remark: listed apart in the source
SARS-CoV-2 [6] = type: cell-based; conditions: 72 hpi
SARS-CoV-2 [7] = test: Golden Syrian hamster SARS-CoV-2 efficacy model, body weight; type: in vivo; conditions: for group average % of starting weight: day 5 of infection
SARS-CoV-2 [8] = test: Hamster lung viral titer by plaque assay, day 5; type: in vivo, Golden Syrian hamster; conditions: for SARS-CoV-2 viral load in lung by plaque quantification, individual animals: values look like log10
SARS-CoV-2 [9] = test: Hamster lung histopathology/infiltrate quantification (H&E, ImageJ); type: in vivo, Golden Syrian hamster; conditions: 500 mg/kg
Text: ImageJ (V1.53) software is used to quantify H&E-stained slide images (at ×20 magnification). Images are first converted to 8-Bit (Image > Type > 8-Bit), their threshold is adjusted (Image > Adjust > Threshold), a threshold value between 70–80% is chosen to ensure only dark stained nuclei are detected. Following thresholding the image is converted to a mask (Process > Binary > Convert to Mask) and analyzed (Analyze > Analyze Particles) with default settings, adding display results and show outline and the output was exported into GraphPad Prism (V9.0.0) where the nonparametric, two-sided Mann–Whitney statistical test was used to calculate significance.

SARS-CoV-2 [10] = test: Hamster lung RNA-Seq analysis; type: in vivo, Golden Syrian hamster; conditions: 500 mg/kg
[11] = Pharmacokinetic studies in Syrian hamsters, PO; type: in vivo; conditions: male, Syrian, hamster, in vivo
Procedure: Pharmacokinetic studies were conducted at Scripps Research Institute’s Animal Models Core in accordance with IACUC guidelines (IACUC Protocol #09-0004-5). Eight-week-old male Syrian Hamsters (Charles River; three per group) were dosed PO as indicated for each compound and formulation. Plasma concentration of each test article was monitored up to 48 h. Nelfinavir was formulated in 10% DMSO/90% corn oil and MK-4482 was formulated in 10% PEG400/2.5% Cremaphor RH40 for both pharmacokinetic and efficacy studies.

HeLa-ACE2 cells [12] = test: cells; type: cell-based, human; conditions: Homo sapiens, HeLa-ACE2; read-out: HeLa-ACE2 TOA cell count EC50 GeoMean
Calu-3 cells [13] = tested on: Calu-3 cells
HeLa-ACE2 cells [14] = test: cells; conditions: Homo sapiens
Calu-3 cells [15] = test: cells; conditions: Homo sapiens
in vitro [16] = conditions: human, Calu-3 uninfected cytotoxicity CC50 GeoMean
in vitro [17] = conditions: human
in vitro [18] = conditions: human; remark: listed apart in the source

**Q.** What does the source list for `CC(C)C(=O)OC[C@H]1O[C@@H](n2ccc(NO)nc2=O)[C@H](O)[C@@H]1O` [MK-4482]?
**A.** Emax (SARS-CoV-2 [1]; Severe acute respiratory syndrome coronavirus 2, HeLa-ACE2, 24 h, curve plateau at infinite concentration, read-out: HeLa-ACE2 CoV-2 Sinf Average): 100%; EC50 (SARS-CoV-2 [1]; Severe acute respiratory syndrome coronavirus 2, HeLa-ACE2, detail block, read-out: HeLa-ACE2 CoV-2 EC50 GeoMean): > 9.45 µM; HeLa-ACE2 SI (SARS-CoV-2 [1]; selectivity index, uninfected HeLa-ACE2 CC50 / SARS-CoV-2 EC50): > 4.21; CC50 at 24 h [2]: > 39.8 µM; cytotox (HeLa-ACE2 cells [3]): -0.706 and -12.7385 and -12.928 and 0.5106 and 4.684 and -11.4286 and -5.289 and -2.8 and 6.41; %infected (SARS-CoV-2 [4]; concentration log[M] -5.00096): -32.7882% and -37.4837% and -33.6325% and -41.3774% and -26.9927% and -42.8416%; %infected (SARS-CoV-2 [4]; concentration log[M] -5.47808): -27.4805% and -3.693% and -9.149% and -11.3438% and 9.653% and -8.935%; %infected (SARS-CoV-2 [4]; concentration log[M] -6.08014): 23.1125% and 4.59% and 25.286% and 17.3454% and 15.2546% and 10.3832%; %infected (SARS-CoV-2 [4]; concentration log[M] -6.42922): 17.3493% and 17.6914% and 5.1734% and 5.136% and 26.2062% and 8.78%; %infected (SARS-CoV-2 [4]; concentration log[M] -6.90623): 7.3785% and 13.9122% and -0.1637% and 2.863% and 27.9695% and 13.9935%; %infected (SARS-CoV-2 [4]; concentration log[M] -7.50836): -8.777% and 19.9854% and 1.789% and 24.5386% and 23.5481% and -28.3332%; %infected (SARS-CoV-2 [4]; concentration log[M] -7.85886): 17.2433% and 32.9409% and -21.7492% and 16.4627% and 42.3108% and 21.6153%; %infected (SARS-CoV-2 [4]; concentration log[M] -8.33602): 11.8145% and 8.098% and -0.8953% and 19.1715% and 30.2349% and 22.7038%; Emax (SARS-CoV-2 [4]; Severe acute respiratory syndrome coronavirus 2, Calu-3, 48 h, curve plateau at infinite concentration, read-out: Calu-3 CoV-2 Sinf Average): 100%; EC50 (SARS-CoV-2 [4]; Severe acute respiratory syndrome coronavirus 2, Calu-3, detail block, read-out: Calu-3 CoV-2 EC50 GeoMean): > 9.98 µM; TOA (SARS-CoV-2 [5]; HeLa-ACE2, log[M] -7.8551): 2.9089 and 4.102 and 5.064; EC50 (SARS-CoV-2 [5]; Severe acute respiratory syndrome coronavirus 2, HeLa-ACE2, detail block, read-out: HeLa-ACE2 TOA CoV-2 EC50 GeoMean): > 9.59 µM; TOA:HeLa-ACE2 EC50 Ratio (SARS-CoV-2 [5]; TOA EC50 / HeLa-ACE2 SARS-CoV-2 EC50): 1.014; reduction in apical viral loads (SARS-CoV-2 [6]): > 1 log; group average % of starting weight (SARS-CoV-2 [7]; 50 mg/kg PO BID): 90%; Percent weight from day 0, individual animals (SARS-CoV-2 [7]; 50 mg/kg, Day 1): 100.619% and 100% and 99.9008% and 97.2408% and 100.231%; Percent weight from day 0, individual animals (SARS-CoV-2 [7]; 50 mg/kg, Day 2): 97.6006% and 97.2498% and 96.3294% and 93.8963% and 97.0023%; Percent weight from day 0, individual animals (SARS-CoV-2 [7]; 50 mg/kg, Day 3): 96.13% and 95.8747% and 93.0556% and 92.5585% and 94.3121%; Percent weight from day 0, individual animals (SARS-CoV-2 [7]; 50 mg/kg, Day 4): 94.4272% and 93.9649% and 89.1865% and 91.7224% and 90.8532%; Percent weight from day 0, individual animals (SARS-CoV-2 [7]; 50 mg/kg, Day 5): 93.4985% and 90.2215% and 86.4087% and 91.3043% and 88.9316%; group average % of starting weight (SARS-CoV-2 [7]; 150 mg/kg PO BID): 89%; Percent weight from day 0, individual animals (SARS-CoV-2 [7]; 150 mg/kg, Day 1): 99.3145% and 100.794% and 101.014% and 100.59% and 100.598%; Percent weight from day 0, individual animals (SARS-CoV-2 [7]; 150 mg/kg, Day 2): 97.0009% and 97.9349% and 97.6599% and 97.2199% and 98.281%; Percent weight from day 0, individual animals (SARS-CoV-2 [7]; 150 mg/kg, Day 3): 94.7729% and 96.1875% and 94.7738% and 95.7035% and 94.843%; Percent weight from day 0, individual animals (SARS-CoV-2 [7]; 150 mg/kg, Day 4): 92.1165% and 92.5338% and 92.3635% and 94.524% and 91.4798%; Percent weight from day 0, individual animals (SARS-CoV-2 [7]; 150 mg/kg, Day 5): 90.4884% and 88.2446% and 89.2356% and 90.9014% and 88.0419%; group average % of starting weight (SARS-CoV-2 [7]; 500 mg/kg PO BID): 97%; Percent weight from day 0, individual animals (SARS-CoV-2 [7]; 500 mg/kg, Day 1): 100.542% and 100.174% and 100.172% and 100.97% and 95.4962%; Percent weight from day 0, individual animals (SARS-CoV-2 [7]; 500 mg/kg, Day 2): 100.619% and 100.174% and 98.4483% and 98.806% and 95.246%; Percent weight from day 0, individual animals (SARS-CoV-2 [7]; 500 mg/kg, Day 3): 101.161% and 99.7394% and 97.8448% and 97.1642% and 96.9975%; Percent weight from day 0, individual animals (SARS-CoV-2 [7]; 500 mg/kg, Day 4): 100.774% and 99.5656% and 97.1552% and 94.5522% and 97.9983%; Percent weight from day 0, individual animals (SARS-CoV-2 [7]; 500 mg/kg, Day 5): 100.31% and 99.7394% and 95.9483% and 95.597% and 98.0817%; viral reduction (SARS-CoV-2 [8]; 50 mg/kg PO BID, compared to vehicle control): 99%; live viral titers in the lungs (SARS-CoV-2 [8]; 50 mg/kg PO BID, day 5, group average): 4.5 × 10^3 PFU/lung; SARS-CoV-2 viral load in lung by plaque quantification, individual animals (SARS-CoV-2 [8]; 50 mg/kg, day 5): 4.176 and 0 and 3.653 and 4.477; live viral titers in the lungs (SARS-CoV-2 [8]; 150 mg/kg PO BID, day 5): undetectable; SARS-CoV-2 viral load in lung by plaque quantification, individual animals (SARS-CoV-2 [8]; 150 mg/kg, day 5): 0; live viral titers in the lungs (SARS-CoV-2 [8]; 500 mg/kg PO BID, day 5): undetectable; SARS-CoV-2 viral load in lung by plaque quantification, individual animals (SARS-CoV-2 [8]; 500 mg/kg, day 5): 0; histological examination of lungs (SARS-CoV-2 [9]): protected; abundance of cellularity and infiltrates in the lungs (ImageJ) (SARS-CoV-2 [9]; MK-4482-treated, Hamster 1-4, individual images): 2983 and 5397 and 4186 and 5390 and 1931 and 4673 and 3775 and 5624 and 2350 and 4146 and 3662 and 5094 and 4440 and 4933 and 3481 and 5058 and 2520 and 4471 and 3837 and 4151 and 2838 and 4738 and 3878 and 3011 and 2773; genes significantly down regulated vs infected vehicle-treated controls (DESeq2) (SARS-CoV-2 [10]): 66 genes; unsupervised hierarchical clustering of lung RNA-Seq samples (SARS-CoV-2 [10]): clustered together with uninfected samples; Cl [11]: 401.00 mL/min/kg; EC50 (HeLa-ACE2 cells [12]): > 9.59 µM; uninfected Calu-3 CC50 (Calu-3 cells [13]): > 29.85 ×÷ 1 (n=2) μM; cytotox (Calu-3 cells [13]; human): -7.212; Emax (HeLa-ACE2 cells [14]; HeLa-ACE2, 24 h, read-out: HeLa-ACE2 cell count Sinf Average): 100%; EC50 (HeLa-ACE2 cells [14]; HeLa-ACE2, read-out: HeLa-ACE2 cell count EC50 GeoMean, detail block): > 9.59 µM; Emax (Calu-3 cells [15]; Calu-3, 48 h, read-out: Calu-3 cell count Sinf Average): 100%; EC50 (Calu-3 cells [15]; Calu-3, read-out: Calu-3 cell count EC50 GeoMean, detail block): > 9.98 µM; CC50 at 48 h (in vitro [16]): > 29.9 µM; CC50 at 72 h (in vitro [17]): > 39.8 µM; CC50 at 72 h (in vitro [18]): > 39.8 µM
